The values below come from patent publication US20230265151A1, “GIP/GLP1 CO-AGONIST COMPOUNDS” (priority 2020, published 2023).

SMILES strings stand for the structures. Like-named read-outs stand apart in the source and are kept apart here. *1 amine or outer side, *2 acyl side, *3 side chain or, on linkers, in order; H or OH if unused. Where a SMILES comes first, the peptide text is derived from it. Side-chain parts run from the residue outwards. [ ]: non-standard residue; d: D form. The star is where a group is joined. Decanoyl(10-(4-HOOC-PhO)) = O=C(O)c1ccc(OCCCCCCCCCC(=O)*)cc1; αMePhe(2-F) = C[C@](N)(Cc1ccccc1F)C(=O)O; γGlu = O=C(O)[C@H](CCC(=O)[*:2])N[*:1]; αMeY = C[C@](N)(Cc1ccc(O)cc1)C(=O)O; αMeL = CC(C)C[C@](C)(N)C(=O)O; Orn = NCCC[C@H](N)C(=O)O; AEEA = NCCOCCOCC(=O)O; Aib = CC(C)(N)C(=O)O

Common to all, as to type: cell-based
One assay addresses T1, hGCGR (Homo sapiens, UniProt P47871).
T1 construct: expressed in transfected cells
As to the kind of experiment: Functional cAMP formation (HTRF) in HEK-293 clonal cells expressing hGCGR, 0.1% bovine casein, without or with 1.0% human serum albumin. The gist of the method:
(§1)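 Cells were stimulated with peptide for 30 min at 37° C, then intracellular cAMP was measured by competitive HTRF (665/620 nm ratio) and converted to nM using a cAMP standard curve. Relative EC50 and Emax came from four-parameter logistic fits of percent maximal response against peptide concentration.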

Another assay concerns the target hGLP-1R (Homo sapiens, UniProt P43220). As to the kind of experiment: Functional cAMP formation (HTRF) in HEK-293 clonal cells expressing hGLP-1R, 0.1% bovine casein, without or with 1.0% human serum albumin. Further details: expressed in transfected cells. The following applies: for EC50: cAMP. The gist of the method: as §1
The target of the next assay is T2, hGIPR (Homo sapiens, UniProt P48546).
T2 construct: expressed in transfected cells
T2 sequence (P48546 22-466): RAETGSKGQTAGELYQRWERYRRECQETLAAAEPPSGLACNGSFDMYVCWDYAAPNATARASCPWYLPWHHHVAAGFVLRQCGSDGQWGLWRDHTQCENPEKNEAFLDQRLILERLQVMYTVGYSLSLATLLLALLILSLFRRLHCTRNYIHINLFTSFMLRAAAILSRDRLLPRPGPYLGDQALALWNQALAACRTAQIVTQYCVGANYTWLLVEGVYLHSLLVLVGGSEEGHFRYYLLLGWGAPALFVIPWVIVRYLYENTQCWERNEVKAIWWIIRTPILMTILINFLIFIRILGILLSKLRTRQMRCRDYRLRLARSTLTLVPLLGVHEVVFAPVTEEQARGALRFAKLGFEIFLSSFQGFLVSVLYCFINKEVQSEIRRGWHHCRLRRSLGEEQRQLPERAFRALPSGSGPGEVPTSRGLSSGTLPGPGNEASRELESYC
As to the kind of experiment: Functional cAMP formation (HTRF) in HEK-293 clonal cells expressing hGIPR, 0.1% bovine casein, without or with 1.0% human serum albumin. The following applies: for EC50: cAMP. The gist of the method: as §1

Sequence of hGLP-1R (P43220 24-463): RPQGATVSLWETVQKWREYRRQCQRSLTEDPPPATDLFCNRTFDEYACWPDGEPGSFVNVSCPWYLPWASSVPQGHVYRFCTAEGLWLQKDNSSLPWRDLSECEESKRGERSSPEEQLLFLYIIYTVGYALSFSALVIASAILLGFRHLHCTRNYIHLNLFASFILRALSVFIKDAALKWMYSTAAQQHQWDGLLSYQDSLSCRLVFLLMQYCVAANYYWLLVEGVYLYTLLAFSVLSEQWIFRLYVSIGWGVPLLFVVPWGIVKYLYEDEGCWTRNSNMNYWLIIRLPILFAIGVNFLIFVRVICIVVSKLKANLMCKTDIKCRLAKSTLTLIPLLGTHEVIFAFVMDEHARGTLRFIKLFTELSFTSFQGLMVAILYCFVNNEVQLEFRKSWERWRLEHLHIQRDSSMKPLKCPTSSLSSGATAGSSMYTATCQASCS
T1 sequence (P47871 26-477): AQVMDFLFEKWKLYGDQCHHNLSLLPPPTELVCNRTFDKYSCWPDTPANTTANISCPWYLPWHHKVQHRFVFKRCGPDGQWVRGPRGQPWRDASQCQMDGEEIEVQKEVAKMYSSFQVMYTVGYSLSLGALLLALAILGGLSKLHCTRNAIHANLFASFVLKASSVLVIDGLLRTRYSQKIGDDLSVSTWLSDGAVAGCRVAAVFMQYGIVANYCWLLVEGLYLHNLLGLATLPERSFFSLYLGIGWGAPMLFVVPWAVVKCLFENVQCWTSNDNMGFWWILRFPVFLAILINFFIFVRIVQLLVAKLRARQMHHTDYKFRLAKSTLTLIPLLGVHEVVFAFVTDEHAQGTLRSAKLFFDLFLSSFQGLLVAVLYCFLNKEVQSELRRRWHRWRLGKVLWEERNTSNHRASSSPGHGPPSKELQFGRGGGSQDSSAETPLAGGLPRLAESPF

As to `CCCCCCCCCCCC(=O)N[C@@H](CCC(=O)NCCOCCOCC(=O)NCCOCCOCC(=O)NCCCC[C@H](NC(=O)[C@H](CCCN)NC(=O)[C@H](CC(=O)O)NC(=O)[C@H](CC(C)C)NC(=O)[C@](C)(CC(C)C)NC(=O)[C@@H](NC(=O)[C@H](CO)NC(=O)[C@H](CCc1ccc(O)cc1)NC(=O)[C@H](CC(=O)O)NC(=O)[C@H](CO)NC(=O)[C@@H](NC(=O)[C@](C)(Cc1ccccc1F)NC(=O)[C@@H](NC(=O)CNC(=O)[C@H](CCC(=O)O)NC(=O)C(C)(C)NC(=O)[C@@H](N)Cc1ccc(O)cc1)[C@@H](C)O)[C@@H](C)O)[C@@H](C)CC)C(=O)N[C@@H](C)C(=O)N[C@@H](CCC(N)=O)C(=O)NC(C)(C)C(=O)N[C@@H](CCC(=O)O)C(=O)N[C@@H](Cc1ccccc1)C(=O)N[C@H](C(=O)N[C@H](CCC(=O)O)C(=O)N[C@@](C)(Cc1ccc(O)cc1)C(=O)N[C@@H](CC(C)C)C(=O)N[C@H](C(=O)N[C@@H](CCCCNC(=O)COCCOCCNC(=O)COCCOCCNC(=O)CC[C@H](NC(=O)CCCCCCCCCCC)C(=O)O)C(=O)NCC(=O)NCC(=O)N1CCC[C@H]1C(=O)N[C@@H](CO)C(=O)N[C@@H](CO)C(=O)NCC(=O)N[C@@H](C)C(=O)N1CCC[C@H]1C(=O)N1CCC[C@H]1C(=O)N1CCC[C@H]1C(=O)N[C@@H](CO)C(N)=O)[C@@H](C)CC)[C@@H](C)CC)C(=O)O` [Example 335], the EC50 is more than 9950 nM on hGCGR (cAMP, 37° C., 0.1% bovine casein (no human serum albumin), geometric mean, read-out: hGCGR EC50, nM (SEM, n)); more than 9950 nM at hGCGR (cAMP, 37° C., 0.1% bovine casein and 1.0% human serum albumin, geometric mean (SEM, n), read-out: hGCGR EC50, nM (SEM, n)); 0.175 nM at hGLP-1R (37° C., 0.1% bovine casein (no human serum albumin), geometric mean, read-out: hGLP-1R EC50, nM (SEM, n)); 12.3 nM on hGLP-1R (37° C., 0.1% bovine casein and 1.0% human serum albumin, geometric mean (SEM, n), read-out: hGLP-1R EC50, nM (SEM, n)); 1.04 nM at hGIPR (37° C., 0.1% bovine casein and 1.0% human serum albumin, geometric mean (SEM, n), read-out: hGIPR EC50, nM (SEM, n)). The Emax stood at 113% at hGLP-1R (HEK293, cAMP, 37° C., 0.1% bovine casein, percent of maximal response to GLP-1(7-36)NH2, arithmetic mean, read-out: hGLP-1R Emax, % ± SEM); 85.2% on hGIPR (HEK293, cAMP, 37° C., 0.1% bovine casein and 1.0% human serum albumin, percent of maximal response to GIP(1-42)NH2, read-out: hGIPR Emax, % ± SEM).

Consider `CC[C@H](C)[C@H](NC(=O)[C@H](CCCN)NC(=O)[C@H](CC(=O)O)NC(=O)[C@H](CC(C)C)NC(=O)[C@](C)(CC(C)C)NC(=O)[C@@H](NC(=O)[C@H](CO)NC(=O)[C@H](Cc1ccncc1)NC(=O)[C@H](CC(=O)O)NC(=O)[C@H](CO)NC(=O)[C@@H](NC(=O)[C@](C)(Cc1ccccc1F)NC(=O)[C@@H](NC(=O)CNC(=O)[C@H](CCC(=O)O)NC(=O)C(C)(C)NC(=O)[C@@H](N)Cc1ccc(O)cc1)[C@@H](C)O)[C@@H](C)O)[C@@H](C)CC)C(=O)N[C@@H](C)C(=O)N[C@@H](CCC(N)=O)C(=O)NC(C)(C)C(=O)N[C@@H](CCCCNC(=O)COCCOCCNC(=O)COCCOCCNC(=O)COCCOCCNC(=O)CC[C@H](NC(=O)CCCCCCCCCCCCC(=O)O)C(=O)O)C(=O)N[C@@H](Cc1ccccc1)C(=O)N[C@H](C(=O)N[C@H](CCC(=O)O)C(=O)N[C@@](C)(Cc1ccc(O)cc1)C(=O)N[C@@H](CC(C)C)C(=O)N[C@H](C(=O)N[C@@H](CCC(=O)O)C(=O)NCC(=O)NCC(=O)N1CCC[C@H]1C(=O)N[C@@H](CO)C(=O)N[C@@H](CO)C(=O)NCC(=O)N[C@@H](C)C(=O)N1CCC[C@H]1C(=O)N1CCC[C@H]1C(=O)N1CCC[C@H]1C(=O)N[C@@H](CO)C(=O)N[C@@H](CCCCNC(=O)COCCOCCNC(=O)COCCOCCNC(=O)COCCOCCNC(=O)CC[C@H](NC(=O)CCCCCCCCCCCCC(=O)O)C(=O)O)C(N)=O)[C@@H](C)CC)[C@@H](C)CC` [Example 228], for which the EC50 at hGCGR (0.1% bovine casein and 1.0% human serum albumin, 37° C., geometric mean, read-out: hGCGR EC50, nM (SEM, n)) was more than 9950 nM; at hGCGR (cAMP, incubated at 37° C., 0.1% bovine casein (no human serum albumin), geometric mean, read-out: hGCGR EC50, nM (SEM, n)) it was more than 9950 nM; at hGLP-1R (incubated at 37° C., 0.1% bovine casein (no human serum albumin), geometric mean, read-out: hGLP-1R EC50, nM (SEM, n)), 1.34 nM; on hGIPR (incubated at 37° C., 0.1% bovine casein (no human serum albumin), geometric mean, read-out: hGIPR EC50, nM (SEM, n)), 0.0232 nM. For the same compound, the Emax on hGLP-1R (HEK293, 0.1% bovine casein and 1.0% human serum albumin, 37° C., percent of maximal response to GLP-1(7-36)NH2, read-out: hGLP-1R Emax, % ± SEM) is 119%; at hGLP-1R (HEK293, percent of maximal response to GLP-1(7-36)NH2, 37° C., 0.1% bovine casein, arithmetic mean, read-out: hGLP-1R Emax, % ± SEM) it was 91.1%; on hGIPR (HEK293, 0.1% bovine casein and 1.0% human serum albumin, 37° C., percent of maximal response to GIP(1-42)NH2, read-out: hGIPR Emax, % ± SEM), 83.3%; on hGIPR (HEK293, percent of maximal response to GIP(1-42)NH2, 37° C., 0.1% bovine casein, arithmetic mean, read-out: hGIPR Emax, % ± SEM), 110%.

For `CC[C@H](C)[C@H](NC(=O)[C@H](CCCN)NC(=O)[C@H](CC(=O)O)NC(=O)[C@H](CC(C)C)NC(=O)[C@](C)(CC(C)C)NC(=O)[C@@H](NC(=O)C(C)(C)NC(=O)[C@H](Cc1ccc(O)cc1)NC(=O)[C@H](CC(=O)O)NC(=O)[C@H](CO)NC(=O)[C@@H](NC(=O)[C@](C)(Cc1ccccc1F)NC(=O)[C@@H](NC(=O)CNC(=O)[C@H](CCC(=O)O)NC(=O)C(C)(C)NC(=O)[C@@H](N)Cc1ccc(O)cc1)[C@@H](C)O)[C@@H](C)O)[C@@H](C)CC)C(=O)N[C@@H](C)C(=O)N[C@@H](CCC(N)=O)C(=O)NC(C)(C)C(=O)N[C@@H](CCCCNC(=O)COCCOCCNC(=O)CC[C@H](NC(=O)CCCCCCCCCOc1ccc(C(=O)O)cc1)C(=O)O)C(=O)N[C@@H](Cc1ccccc1)C(=O)N[C@H](C(=O)N[C@H](CCC(=O)O)C(=O)N[C@@](C)(Cc1ccc(O)cc1)C(=O)N[C@@H](CC(C)C)C(=O)N[C@H](C(=O)N[C@@H](CCC(=O)O)C(=O)NCC(=O)NCC(=O)N1CCC[C@H]1C(=O)N[C@@H](CO)C(=O)N[C@@H](CO)C(=O)NCC(=O)N[C@@H](C)C(=O)N1CCC[C@H]1C(=O)N1CCC[C@H]1C(=O)N1CCC[C@H]1C(=O)N[C@@H](CO)C(=O)N[C@@H](CCCCNC(=O)COCCOCCNC(=O)CC[C@H](NC(=O)CCCCCCCCCOc1ccc(C(=O)O)cc1)C(=O)O)C(N)=O)[C@@H](C)CC)[C@@H](C)CC` [Example 377] (H-Y[Aib]EGT[αMePhe(2-F)]TSDY[Aib]I[αMeL]LD[Orn]IAQ[Aib]K([AEEA-γGlu-Decanoyl(10-(4-HOOC-PhO))])FI[dE][αMeY]LIEGGPSSGAPPPSK([AEEA-γGlu-Decanoyl(10-(4-HOOC-PhO))])-NH2), the EC50 was more than 9950 nM at hGCGR (hGCGR EC50, nM (SEM, n), cAMP, 37° C., 0.1% bovine casein (no human serum albumin), geometric mean); more than 9950 nM at hGCGR (hGCGR EC50, nM (SEM, n), cAMP, 37° C., 0.1% bovine casein and 1.0% human serum albumin, geometric mean (SEM, n)); 0.356 nM at hGLP-1R (hGLP-1R EC50, nM (SEM, n), 37° C., 0.1% bovine casein (no human serum albumin), geometric mean); 0.0205 nM on hGIPR (hGIPR EC50, nM (SEM, n), 37° C., 0.1% bovine casein (no human serum albumin), geometric mean). The Emax on hGLP-1R (HEK293, read-out: hGLP-1R Emax, % ± SEM, cAMP, 37° C., 0.1% bovine casein and 1.0% human serum albumin, percent of maximal response to GLP-1(7-36)NH2) was determined as 110%; on hGLP-1R (HEK293, read-out: hGLP-1R Emax, % ± SEM, cAMP, 37° C., 0.1% bovine casein, percent of maximal response to GLP-1(7-36)NH2, arithmetic mean), 100%; at hGIPR (HEK293, read-out: hGIPR Emax, % ± SEM, cAMP, 37° C., 0.1% bovine casein and 1.0% human serum albumin, percent of maximal response to GIP(1-42)NH2), 79.4%; on hGIPR (HEK293, read-out: hGIPR Emax, % ± SEM, cAMP, 37° C., 0.1% bovine casein, percent of maximal response to GIP(1-42)NH2, arithmetic mean) it was 92.8%.
